{
  "source": "patent US20100227797A1",
  "about": "“USE OF CYCLOLIGNANS FOR THE TREATMENT OF TYPE 2 DIABETES AND AS CONTRACEPTIVES” (AXELAR AB, priority 2006, published 2010)",
  "key": {"[1]": {"experiment": "Assay of blood glucose in mice after one week picropodophyllin treatment", "format": "in vivo, SCID mice", "settings": "20 mg/kg/12 h i.p.", "description": "Ten weeks old SCID mice were treated with PPP (20 mg/kg/12 h) intraperitoneally using DMSO as vehicle. Control mice were treated with vehicle only. Three mice were treated in each group. After treatment for 7 days, the mice were sacrificed 4 h after the last injections. Blood samples were taken and the concentration of glucose in the serum was determined by a dry slide technique using Vitros 950 Chemistry System. In this experiment, healthy SCID mice were treated with picropodophyllin by intraperitoneal injections twice daily, the dose being 20 mg/kg/12 h. The control group was treated with the vehicle only (totally per day: 20 μL DMSO). Each group included 3 mice."}, "[2]": {"system": "macular degeneration lesions", "experiment": "Laser induction of macular degeneration lesions, mouse model", "format": "in vivo, C57Bl/6 mice", "parameters": "Area of macular degeneration: scale not given here", "description": "To induce macular degeneration lesions adult C57Bl/6 mice were anesthetized and three laser spots were placed in fundus flavimaculatus of the choroidea with a krypton red laser (614 nm, […], 0.05 second, 200 mW). The mice were then treated with PPP (20 mg/kg/12 h) intraperitoneally using DMSO as vehicle for two weeks. Control mice were treated with vehicle only. Twenty mice were treated in each group. Two weeks after the laser treatment, the animals were perfused with 3% FITC-conjugated high-molecular-weight dextran, sacrificed and choroidal flat mounts were prepared. Flat-mounts were examined with fluorescence microscopy Axioskop microscope. Macular degeneration lesions were identified as FITC-perfused vessels. Image-Pro Plus software was used to measure the area of each CNV lesion. Data were recorded as area of macular degeneration lesions (μm^2). Macular degeneration is the leading cause of vision loss. Macular degeneration lesions were induced in 40 adult C57Bl/6 mice by laser. Twenty animals received intraperitoneal (i.p.) injections of picropodophyllin (PPP; 20 mg/kg/12 h) for 2 weeks. Controls received i.p. injections of vehicle. Two weeks after the laser treatment the animals were sacrificed and choroidal flat mounts were prepared. Flat-mounts were examined with fluorescence microscopy. Image-Pro Plus software was used to measure the area of each CNV lesion."}, "ovulation": {"system": "ovulation", "experiment": "Effect on ovulation in a mouse model", "format": "in vivo", "settings": "female mice", "description": "Female mice were treated with picropodophyllin (PPP; 20 mg/kg/12 h, given intrapritoneally) on days −1 and 0 of mating. The vaginal plug was checked on the next morning. Six animals from each group were sacrificed 4 days after mating. The organs collected were ovaries, uterus, liver and spleen for biochemical analysis."}, "[3]": {"system": "implantation of the embryo", "experiment": "Effect on implantation in a mouse model", "format": "in vivo, mice", "settings": "20 mg/kg/12 h i.p., day 3 to 6 after plug", "description": "The animals were put for mating and the vaginal plug was checked on the next morning. Six female mice positive for vaginal plug were treated with picropodophyllin (20 mg/kg/12 h, given intraperitoneally) and six with vehicle (controls) from day 3 to 6 after the plug. They were sacrificed on day 9 after ovulation. The organs collected were ovaries, uterus, liver and spleen for biochemical analysis."}},
  "note": "“And” between values parts separate entries of the source, which are not always exact repeats. Identical values can stand only once. Marks after values point to notes of the source that are not given here.",
  "data": [
    {"smiles": "COc1cc([C@@H]2c3cc4c(cc3[C@H](O)[C@H]3COC(=O)[C@@H]23)OCO4)cc(OC)c1OC", "note": "[PPP, picropodophyllin]", "values": [
      {"measurement": "Effect on blood glucose levels", "setting": "[1]; SCID mice, one week, compared to controls", "value": "decreased the blood glucose levels"},
      {"measurement": "Glucose level in serum", "setting": "[1]; individual SCID mice, 7 days, sampled 4 h after last injection, 20 mg/kg", "value": "4.5 mM (2×) and 5.7 mM"},
      {"measurement": "Glucose level in serum, mean", "setting": "[1]; mean of 3 SCID mice, 7 days, vehicle control mean 7.0", "value": 4.9, "unit": "mM"},
      {"measurement": "Area of macular degeneration", "setting": "[2]; mean, C57Bl/6 mice, 20 mg/kg/12 h i.p. for 2 weeks after laser, vehicle mean 2.565", "value": "Mean: 1.753 μm^2"},
      {"measurement": "Decrease in macular degeneration lesion area", "setting": "[2]; versus vehicle, 20 mg/kg/12 h i.p. for 2 weeks, statistically significant", "value": 32, "unit": "%"},
      {"measurement": "Number of mice with positive plug", "setting": "ovulation; 20 mg/kg/12 h i.p. on days -1 and 0 of mating, n = 36, vehicle 3 of 6", "value": "n = 0"},
      {"measurement": "Percent ovulated mice", "setting": "ovulation; 20 mg/kg/12 h i.p. on days -1 and 0 of mating, vehicle 50%", "value": 0, "unit": "%"},
      {"measurement": "Inhibition of ovulation", "setting": "ovulation; 20 mg/kg/12 h i.p., P=0.005919, Fishers exact test", "value": "did not ovulate at all"},
      {"measurement": "Effect on implantation of the embryo", "setting": "[3]; no statistical significance", "value": "interferes negatively with implantation"},
      {"measurement": "Number of pregnancies", "setting": "[3]; 6 plug-positive female mice, sacrificed day 9, vehicle 4 of 6, not statistically significant", "value": "2*"}
    ]}
  ]
}
